# Assay results published in ChEMBL document CHEMBL4196030, “Enediynes bearing polyfluoroaryl sulfoxide as new antiproliferative agents with dual targeting of microtubules and DNA” (Eur J Med Chem, 2018).
# Activity calls are given as the source filed them. No cut-off for these calls is given here.
# Tests used:
# [1] = system: MIA PaCa-2; assay: Antiproliferative activity against human MIAPaCa2 cells after 70 hrs by alamar blue assay; format: functional, cell-based; conditions: MIA PaCa-2, 70 h
# [2] = system: A549; assay: Disruption of microtubule network in human A549 cells at 5 times antiproliferative IC50 after 1 to 12 hrs by immunofluorescence assay; format: cell-based
# [3] = species: Homo sapiens; assay: Disruption of microtubule network in human MIAPaCa2 cells at 5 times antiproliferative IC50 after 1 to 12 hrs by immunofluorescence assay; format: cell-based
# [4] = system: A498; assay: Disruption of microtubule network in human A498 cells at 5 times antiproliferative IC50 after 1 to 12 hrs by immunofluorescence assay; format: cell-based
# [5] = system: BEAS-2B; assay: Antiproliferative activity against human BEAS2B cells after 70 hrs by alamar blue assay; format: cell-based
# [6] = system: HUVEC; assay: Antiproliferative activity against HUVEC after 70 hrs by alamar blue assay; format: cell-based; conditions: Homo sapiens
# [7] = Ratio of IC50 for antiproliferative activity against human BEAS2B cells to IC50 for cytotoxicity against human BEAS2B cells; format: cell-based, BEAS-2B; conditions: read-out: Ratio IC50
# [8] = Ratio of IC50 for antiproliferative activity against human MIAPaCa2 cells to IC50 for cytotoxicity against human MIAPaCa2 cells; design: species or system MIA PaCa-2
# [9] = system: HBL-100; assay: Cytotoxicity against human HBL100 cells assessed as reduction in cell viability after 70 hrs by alamar blue assay; format: cell-based; conditions: HBL-100, 70 h
# [10] = system: HBL-100; assay: Antiproliferative activity against human HBL100 cells after 70 hrs by alamar blue assay; format: cell-based; conditions: HBL-100, 70 h
# [11] = system: BEAS-2B; assay: Cytotoxicity against human BEAS2B cells assessed as reduction in cell viability after 70 hrs by alamar blue assay; format: cell-based
# [12] = system: MIA PaCa-2; assay: Cytotoxicity against human MIAPaCa2 cells assessed as reduction in cell viability after 70 hrs by alamar blue assay; format: cell-based; conditions: MIA PaCa-2, 70 h
# [13] = Ratio of IC50 for antiproliferative activity against human HBL100 cells to IC50 for cytotoxicity against human HBL100 cells; format: cell-based, HBL-100; conditions: read-out: Ratio IC50
# [14] = system: HUVEC; assay: Cytotoxicity against HUVEC assessed as reduction in cell viability after 70 hrs by alamar blue assay; format: cell-based; conditions: Homo sapiens
# [15] = Selectivity ratio of IC50 for antiproliferative activity against human A498 cells under dark condition to IC50 for antiproliferative activity against human A498 cells under 0.6 J/cm2 light irradiation; format: functional
# [16] = system: MDA-MB-231; assay: Antiproliferative activity against human MDA-MB-231 cells preincubated for 4 hrs followed by 0.6 J/cm2 light irradiation for 10 mins and measured after 70 hrs by alamar blue assay; format: functional, cell-based; conditions: MDA-MB-231, light or radiation study
# [17] = system: A549; assay: Antiproliferative activity against human A549 cells preincubated for 4 hrs followed by 0.6 J/cm2 light irradiation for 10 mins and measured after 70 hrs by alamar blue assay; format: functional, cell-based; conditions: A549, light or radiation study
# [18] = system: MOLT-4; assay: Antiproliferative activity against human MOLT4 cells preincubated for 4 hrs followed by 0.6 J/cm2 light irradiation for 10 mins and measured after 70 hrs by alamar blue assay; format: functional, cell-based; conditions: MOLT-4, light or radiation study
# [19] = Selectivity ratio of IC50 for antiproliferative activity against human A431 cells under dark condition to IC50 for antiproliferative activity against human A431 cells under 0.6 J/cm2 light irradiation; format: functional, A-431
# [20] = system: A-431; assay: Antiproliferative activity against human A431 cells preincubated for 4 hrs followed by 0.6 J/cm2 light irradiation for 10 mins and measured after 70 hrs by alamar blue assay; format: functional, cell-based; conditions: A-431, light or radiation study
# [21] = system: A-431; assay: Antiproliferative activity against human A431 cells after 70 hrs by alamar blue assay; format: functional, cell-based; conditions: A-431, 70 h
# [22] = Selectivity ratio of IC50 for antiproliferative activity against human Caco2 cells under dark condition to IC50 for antiproliferative activity against human Caco2 cells under 0.6 J/cm2 light irradiation; format: functional, Caco-2
# [23] = system: A549; assay: Antiproliferative activity against human A549 cells after 70 hrs by alamar blue assay; format: functional, cell-based; conditions: A549, 70 h
# [24] = system: MIA PaCa-2; assay: Potency index, ratio of 5-fluorouracil IC50 to compound IC50 for antiproliferative activity against human MIAPaCa2 cells; format: functional
# [25] = Selectivity ratio of IC50 for antiproliferative activity against human MIAPaCa2 cells under dark condition to IC50 for antiproliferative activity against human MIAPaCa2 cells under 0.6 J/cm2 light irradiation; format: functional, MIA PaCa-2
# [26] = Selectivity ratio of IC50 for antiproliferative activity against human MDA-MB-231 cells under dark condition to IC50 for antiproliferative activity against human MDA-MB-231 cells under 0.6 J/cm2 light irradiation; format: functional
# [27] = system: MDA-MB-231; assay: Antiproliferative activity against human MDA-MB-231 cells after 70 hrs by alamar blue assay; format: functional, cell-based; conditions: MDA-MB-231, 70 h
# [28] = Selectivity ratio of IC50 for antiproliferative activity against human A549 cells under dark condition to IC50 for antiproliferative activity against human A549 cells under 0.6 J/cm2 light irradiation; format: functional
# [29] = Selectivity ratio of IC50 for antiproliferative activity against human PC3 cells under dark condition to IC50 for antiproliferative activity against human PC3 cells under 0.6 J/cm2 light irradiation; format: functional, PC-3
# [30] = Antiproliferative activity against human GERL3.0 cells preincubated for 4 hrs followed by 0.6 J/cm2 light irradiation for 10 mins and measured after 70 hrs by alamar blue assay; format: functional, cell-based; conditions: light or radiation study
# [31] = Selectivity ratio of IC50 for antiproliferative activity against human MOLT4 cells under dark condition to IC50 for antiproliferative activity against human MOLT4 cells under 0.6 J/cm2 light irradiation; format: functional, MOLT-4
# [32] = Selectivity ratio of IC50 for antiproliferative activity against human GERL3.0 cells under dark condition to IC50 for antiproliferative activity against human GERL3.0 cells under 0.6 J/cm2 light irradiation; format: functional
# [33] = Antiproliferative activity against human GERL3.0 cells after 70 hrs by alamar blue assay; format: functional, cell-based
# [34] = system: K562; assay: Antiproliferative activity against human K562 cells after 70 hrs by alamar blue assay; format: functional, cell-based; conditions: K562, 70 h
# [35] = system: MIA PaCa-2; assay: Antiproliferative activity against human MIAPaCa2 cells preincubated for 4 hrs followed by 0.6 J/cm2 light irradiation for 10 mins and measured after 70 hrs by alamar blue assay; format: functional, cell-based; conditions: MIA PaCa-2, light or radiation study
# [36] = system: Caco-2; assay: Antiproliferative activity against human Caco2 cells after 70 hrs by alamar blue assay; format: functional, cell-based; conditions: Caco-2, 70 h
# [37] = Induction of supercoiled plasmid complementary DNA3 cleavage at 100 uM after 1 hr by gel electrophoresis method
# [38] = system: PC-3; assay: Antiproliferative activity against human PC3 cells preincubated for 4 hrs followed by 0.6 J/cm2 light irradiation for 10 mins and measured after 70 hrs by alamar blue assay; format: functional, cell-based; conditions: PC-3, light or radiation study
# [39] = Induction of supercoiled plasmid complementary DNA3 cleavage at 100 uM after 1 hr under LED light irradiation by gel electrophoresis method
# [40] = system: A498; assay: Antiproliferative activity against human A498 cells preincubated for 4 hrs followed by 0.6 J/cm2 light irradiation for 10 mins and measured after 70 hrs by alamar blue assay; format: functional, cell-based; conditions: A498, light or radiation study
# [41] = system: PC-3; assay: Antiproliferative activity against human PC3 cells after 70 hrs by alamar blue assay; format: functional, cell-based; conditions: PC-3, 70 h
# [42] = system: A498; assay: Antiproliferative activity against human A498 cells after 70 hrs by alamar blue assay; format: functional, cell-based; conditions: A498, 70 h
# [43] = system: MOLT-4; assay: Antiproliferative activity against human MOLT4 cells after 70 hrs by alamar blue assay; format: functional, cell-based; conditions: MOLT-4, 70 h
# [44] = system: Caco-2; assay: Antiproliferative activity against human Caco2 cells preincubated for 4 hrs followed by 0.6 J/cm2 light irradiation for 10 mins and measured after 70 hrs by alamar blue assay; format: functional, cell-based; conditions: Caco-2, light or radiation study
structure (smiles),measurement,setting,value
[O-][S+](CC#Cc1ccccc1C#CCCCCO)c1c(F)c(F)c(F)c(F)c1F (stereo unspecified),IC50,[1],> 10000 nM
[N-]=[N+]=NCC#Cc1ccccc1C#CC[S+]([O-])c1c(F)c(F)c(F)c(F)c1F (stereo unspecified),IC50,[1],2400 nM
[O-][S+](CC#Cc1cc2ccccc2cc1C#CCO)c1c(F)c(F)c(F)c(F)c1F (stereo unspecified),Activity,[2],Active
same,Activity,[3],Active
same,IC50,[1],4700 nM
[O-][S+](CC#Cc1ccccc1)c1c(F)c(F)c(F)c(F)c1F (stereo unspecified),IC50,[1],7800 nM
COc1cc2c(c(OC)c1OC)-c1ccc(OC)c(=O)cc1[C@@H](NC(C)=O)CC2,Activity,[4],Active
COc1ccc(NS(=O)(=O)c2c(F)c(F)c(F)c(F)c2F)cc1F [BATABULIN],IC50,[5],12.2 µM
same,IC50,[6],6.3 µM
same,selectivity ratio,[7],> 3.2
same,Ratio IC50,[8],35.8
same,IC50,[9],> 40 µM
same,Activity,[4],Active
same,IC50,[10],200 nM
same,IC50,[11],> 40 µM
same,IC50,[12],47.3 µM
same,selectivity ratio,[13],> 190
same,IC50,[14],16.4 µM
[O-][S+](CC#Cc1cccnc1C#CCO)c1c(F)c(F)c(F)c(F)c1F (stereo unspecified),IC50,[5],1 µM
same,IC50,[6],0.6 µM
same,selectivity ratio,[7],18.6
same,Ratio IC50,[15],1.1
same,Activity,[2],Active
same,IC50,[16],500 nM
same,Ratio IC50,[8],25.3
same,IC50,[17],800 nM
same,IC50,[9],27.1 µM
same,Activity,[3],Active
same,IC50,[18],400 nM
same,Ratio IC50,[19],1.3
same,IC50,[20],1100 nM
same,IC50,[21],1500 nM
same,Ratio IC50,[22],2
same,Activity,[4],Active
same,IC50,[23],1600 nM
same,Ratio IC50,[24],6
same,Ratio IC50,[25],3.7
same,Ratio IC50,[26],2.2
same,IC50,[27],1200 nM
same,Ratio IC50,[28],2
same,Ratio IC50,[29],2.5
same,IC50,[30],600 nM
same,Ratio IC50,[31],1.6
same,Ratio IC50,[32],1.4
same,IC50,[1],800 nM
same,IC50,[33],900 nM
same,IC50,[10],1400 nM
same,IC50,[34],700 nM
same,IC50,[11],19.6 µM
same,IC50,[12],20.5 µM
same,IC50,[35],200 nM
same,selectivity ratio,[13],19.3
same,IC50,[36],1000 nM
same,Activity,[37],inactive
same,IC50,[38],500 nM
same,Activity,[39],Active
same,IC50,[40],3.2 µM
same,IC50,[41],1400 nM
same,IC50,[42],3.4 µM
same,IC50,[43],600 nM
same,IC50,[14],8.8 µM
same,IC50,[44],500 nM
[O-][S+](CC#Cc1ccccc1C#CCO)c1ccccc1 (stereo unspecified),IC50,[5],29.5 µM
same,IC50,[6],79.8 µM
same,selectivity ratio,[7],2.8
same,Activity,[2],inactive
same,Ratio IC50,[8],7.8
same,IC50,[9],35.4 µM
same,Activity,[3],inactive
same,Activity,[4],inactive
same,IC50,[1],15900 nM
same,IC50,[10],19000 nM
same,IC50,[11],81.9 µM
same,IC50,[12],124 µM
same,selectivity ratio,[13],1.8
same,IC50,[14],66.2 µM
[O-][S+](CC#Cc1ccccc1C#CCO)c1c(F)c(F)c(F)c(F)c1F (stereo unspecified),Activity,[2],Active
same,Activity,[3],Active
same,IC50,[1],2600 nM
same,Activity,[37],inactive
CCCCC(=O)OCC#Cc1ncccc1C#CC[S+]([O-])c1c(F)c(F)c(F)c(F)c1F (stereo unspecified),Ratio IC50,[25],6
same,IC50,[1],3000 nM
same,IC50,[35],500 nM
Nc1ccn([C@@H]2O[C@H](CO)[C@@H](O)C2(F)F)c(=O)n1 [GEMCITABINE],IC50,[1],120 nM
[O-][S+](CC#Cc1cccnc1C#CCOC1CCCCO1)c1c(F)c(F)c(F)c(F)c1F (stereo unspecified),IC50,[1],1000 nM
CCOC(=O)c1ccc(C#CCO)c(C#CC[S+]([O-])c2c(F)c(F)c(F)c(F)c2F)c1 (stereo unspecified),IC50,[1],1600 nM
[O-][S+](CC#Cc1c(C#CCO)sc2ccccc12)c1c(F)c(F)c(F)c(F)c1F (stereo unspecified),IC50,[1],2200 nM
COc1cccc2c1C(=O)c1c(O)c3c(c(O)c1C2=O)C[C@@](O)(C(=O)CO)C[C@@H]3O[C@H]1C[C@H](N)[C@H](O)[C@H](C)O1 [DOXORUBICIN],IC50,[5],2.4 µM
same,IC50,[6],0.15 µM
same,IC50,[9],8.5 µM
same,IC50,[10],80 nM
same,IC50,[11],18.6 µM
same,IC50,[12],3.1 µM
same,IC50,[14],0.48 µM
COCCOCOCC#Cc1ncccc1C#CC[S+]([O-])c1c(F)c(F)c(F)c(F)c1F (stereo unspecified),IC50,[1],800 nM
O=S(=O)(CC#Cc1ccccc1C#CCO)c1c(F)c(F)c(F)c(F)c1F,IC50,[1],3900 nM
